IC50 data for 92 compounds are collected here from PubChem BioAssay AID2823 (Broad Institute, 2010).

By IC50 is commonly meant the concentration at which inhibition is half-maximal.

Active and inactive are the calls of the source. No rule for the calls is given here.

This assay deals with RanGTP-importin-beta complex (human Ran / KPNB1). Kind of assay: disruptors of RanGTP/KPNB1 binding – biochemical, FRET, CFP/YFP, cell-free homogeneous, confirmation (AID 2823). Particulars: CFP-Ran/YFP-importin-beta FRET ratio.
With `CSc1nsc2nc(=O)c(/C=C3\C=Nc4ccccc43)c(N)n12`, the IC50 is 22.6 µM. As for `O=c1[nH]c(=O)n(-c2cccc3ccccc23)c(O)c1/C=N/N1CCCCCC1`, the IC50 is > 50 µM (inactive). As for `COC(=O)c1cc(C(=O)OC)[nH]n1`, the IC50 is > 50 µM (inactive).

Turning to `NS(=O)(=O)c1ccc(CCNC(=O)C(=O)c2c[nH]c3ccccc23)cc1`, the IC50 was > 50 µM (inactive). `CCOC(=O)c1c(N)n(CCCOC(=O)c2ccco2)c2nc3ccccc3nc12`: the IC50 is 23.7 µM. In the case of `Cc1[nH]nc2c1C(c1ccoc1)C(C#N)=C(N)O2` (configuration not stated) it was > 50 µM (inactive); in that of `Cc1ccc2cc(CN(CC3CCCO3)C(=S)Nc3ccccc3)c(=O)[nH]c2c1C` (configuration not stated), > 50 µM (inactive); in that of `Cc1cc(C)c(C#N)c(Nc2ccccc2C)n1`, > 50 µM (inactive). On to `CCCn1c(SCC(=O)Nc2ccc(NC(C)=O)cc2)nc2c1c(=O)n(C)c(=O)n2C`, for which the IC50 is > 50 µM (inactive).

Regarding `COc1ccccc1CNC(=O)Cn1ccsc1=N`, the IC50 was > 50 µM (inactive).

As for `CC1=Nc2ccccc2/C1=C\c1nc(-c2ccc(F)cc2)oc1O`, the IC50 is > 50 µM (inactive). For the compound `Cc1ccc(Cl)cc1N1C(=O)CC(Sc2ncccn2)C1=O` (configuration not stated), the IC50 was > 50 µM (inactive).

With `CS(=O)(=O)c1nsc2nc(=O)c(/C=C3\C=Nc4ccccc43)c(N)n12`, the IC50 was 15.1 µM. With `COc1ccc(C(CNC(=O)c2cc(F)c(F)c(F)c2F)N2CCOCC2)cc1` (configuration not stated), the IC50 was > 50 µM (inactive). As for `CCN(CC)CCCNC(=S)N(Cc1cccs1)Cc1cc2cc3c(cc2[nH]c1=O)OCCO3`, the IC50 was > 50 µM (inactive). To `O=C(Nc1cnc2ccccc2c1)c1cccc(-n2cnnn2)c1` belongs > 50 µM (inactive); to `Cc1cccc(C)c1OCC(=O)OC/C(O)=C(\C#N)c1nc2ccccc2[nH]1`, > 50 µM (inactive); to `CCOC(=O)/C(=N\Nc1ccc(C(C)=O)cc1)c1csc(Nc2ccccc2)n1`, > 50 µM (inactive). In the case of `O=C(Oc1c(CN2CCOCC2)cc(Cl)c2cccnc12)c1ccccc1` it was > 50 µM (inactive); in that of `Cc1cc(NC(=O)c2sc3ccccc3c2O)no1`, 26.3 µM; in that of `Cc1ccc2cc(C#N)c(N3CCCN(C(=S)NCCCN(C)C)CC3)nc2c1`, 22.6 µM. For the compound `CCn1c(=O)cc(N2CCC3(CC2)OCCO3)[nH]c1=O`, the IC50 is > 50 µM (inactive).

On to `CCCN(CCO)Cc1cccc(Br)c1`, for which the IC50 was > 50 µM (inactive). As for `Cc1ccc2nc(N3CCN(C(=O)c4ccc(F)cc4)CC3)c(C#N)cc2c1`, the half-maximal inhibitory concentration (IC50) is 23.3 µM.

Take `CCOCCCNC(=S)NCCCNc1nc2cc3c(cc2cc1C#N)OCO3`: the half-maximal inhibitory concentration (IC50) is 9.41 µM.

As for `CC(=O)N1CCC(N(CCN2CCOCC2)C(=O)Nc2ccc(Cl)c(Cl)c2)CC1`, the IC50 is > 50 µM (inactive).

Turning to `O=C(c1ccco1)c1cc2c(ccc3ccccc32)oc1=O`, the IC50 is 25 µM. With `CC(C)OC(=O)c1nnn(-c2nonc2N)c1CN1CCCCCC1`, the IC50 is > 50 µM (inactive).

In the case of `COc1ccc(C(=O)C[n+]2ccc(N)c(C)c2C)cc1`, the IC50 is > 50 µM (inactive). On to `Cn1c(N)c(C(=O)COC(=O)C2(c3ccc(F)cc3)CCCC2)c(=O)n(C)c1=O`, for which the IC50 is > 50 µM (inactive). In the case of `CCOc1ccc(-n2c(N)c(C(=O)NCc3ccco3)c3nc4ccccc4nc32)cc1` it was 25 µM; in that of `Clc1ccc(-c2nnc(SCc3nc4ccccc4[nH]3)o2)c(Cl)c1`, > 50 µM (inactive); in that of `CC(C)S(=O)(=O)c1nsc2nc(=O)c(/C=C3\C=Nc4ccccc43)c(N)n12`, 7.97 µM. For `CCOc1ccccc1NC1=CC(=O)CC(c2ccccc2)C1` (configuration not stated), the IC50 was > 50 µM (inactive). On to `N#Cc1c2ncn(CC(=O)c3ccc(Br)cc3)c(=O)c2c2n1CCC2`, for which the IC50 was > 50 µM (inactive). In the case of `Cc1ccc(-n2c(=O)c(C#N)cc3c(=O)n4ccccc4nc32)cc1` it was 1.99 µM; in that of `COc1ccc(NC(=O)N2CCCCCC2)cc1`, > 50 µM (inactive).

With `CCc1ccc(C2C3=C(CC(C)(C)CC3=O)Nc3c2c(=O)[nH]c2nc(C)nn32)cc1` (configuration not stated), the concentration for half-maximal inhibition (IC50) was 7.01 µM. Take `CCC(=O)Nc1ccc(N/C(N)=N/c2nc(C)cc(C)n2)cc1`: the IC50 was > 50 µM (inactive). On to `CCCCc1cc(=O)oc2c(CN3CCCC3)c(O)c(Cl)cc12`, for which the IC50 was 23 µM.

For `COc1ccccc1N=C(C)C1=C(O)CC(c2ccccc2)CC1=O` (configuration not stated), the IC50 is > 50 µM (inactive). With `O=C1C(=O)N(CCS(=O)(=O)c2ccccc2)c2ccc(Cl)cc21`, the IC50 is > 50 µM (inactive). For the compound `CCN(CC)Cc1c(O)ccc2c(C)c(CC(=O)OC)c(=O)oc12`, the half-maximal inhibitory concentration (IC50) was 14 µM.

With `CCN(CC)Cc1c(O)c(Cl)cc2c(C)c(C)c(=O)oc12`, the IC50 was 21.1 µM. In the case of `NS(=O)(=O)c1ccc(N=Nc2c[nH]c(=O)c(O)c2)cc1` it was > 50 µM (inactive); in that of `O=C1NC(=S)S/C1=C1\Sc2ccccc2N1CCCS(=O)(=O)O`, 12.5 µM; in that of `CC12OC1C1(O)CCCC1=CC2=O` (configuration not stated), > 50 µM (inactive). As for `O=C(Cn1c2ccccc2c(=O)c2ccccc21)Nc1ccccc1F`, the IC50 was 5.51 µM. To `COc1ccc(C2NC(=S)NC3=C2CCCC3=C2SCCS2)cc1` (configuration not stated) belongs > 50 µM (inactive); to `O=C(NC1CCCCCC1)C(=S)NCCc1ccccc1`, > 50 µM (inactive). For the compound `Cc1ccc(S(=O)(=O)N(C)Cc2ccc(C(=O)N/N=C3\CC(=O)CC(C)(C)C3)cc2)cc1`, the IC50 was > 50 µM (inactive).

In the case of `Cc1cc(Cl)ccc1C(=O)C1CCCN(C(=O)c2n[nH]c3c2CCCC3)C1` (configuration not stated), the IC50 was > 50 µM (inactive). Consider `O=C(O)C1CCCC2CN3CCc4c([nH]c5ccccc45)C3C(O)C21` (configuration not stated), for which the IC50 was > 50 µM (inactive).

With `Cc1ccccc1Cn1nnc(-c2cccc(C(=O)O)c2)n1`, the IC50 is > 50 µM (inactive). For `COc1ccc(C(=O)O)cc1S(=O)(=O)N(C)C`, the IC50 was > 50 µM (inactive). As to `COC(=O)c1ccc2c(=O)n(CCN3CCOCC3)c(SCC(=O)C(C)(C)C)nc2c1`, the IC50 was > 50 µM (inactive). With `Cc1nc2ccccc2n1CC(=O)N1CC(=O)Nc2ccccc21`, the IC50 was > 50 µM (inactive).

Turning to `O=C(Nc1cccc(F)c1)c1ccc(S(=O)(=O)NCC2CCCO2)cc1` (configuration not stated), the IC50 is > 50 µM (inactive). On to `Cc1ccc2[nH]c(=O)c(C(c3nnnn3Cc3ccccc3)N3CCc4ccccc43)cc2c1` (configuration not stated), for which the IC50 is > 50 µM (inactive). In the case of `COc1ccccc1/C=C/c1nc(C#N)c(N(C)C)o1` it was 17.4 µM; in that of `Cc1cccc(Nc2nnc(SC/C(O)=C(\C#N)c3nc4ccccc4[nH]3)s2)c1C`, > 50 µM (inactive); in that of `CCOC(=O)c1oc2c(CN3CCN(CCO)CC3)c(O)c(CC)cc2c(=O)c1-c1nc2ccccc2s1`, 18.4 µM. `COc1c2ccccc2nc2ccccc12`: the IC50 is 8.46 µM. In the case of `O=C(/C=C/c1cccs1)Nc1ccc([N+](=O)[O-])cc1` it was > 50 µM (inactive). Regarding `Cc1csc2ncnc(NC3CCN(Cc4ccccc4)CC3)c12`, the IC50 was > 50 µM (inactive). Take `COc1cccc(-c2cc(C(=O)NC3CC3)c3ccccc3n2)c1`: the IC50 was > 50 µM (inactive). On to `COc1ccccc1NC(=O)CN1CCN(CC(=O)Nc2ccc(C)c(F)c2)CC1`, for which the IC50 is > 50 µM (inactive). `CCOC(=O)c1c(N)n(CCOC(=O)c2cccs2)c2nc3ccccc3nc12`: the IC50 was 39.3 µM. To `Cc1c(O)c(CN2CCCCC2)cc2c3c(c(=O)oc12)CCC3` belongs 9.04 µM. For `CCCn1nc(NC(=O)CC(C)C)c2cc3cccc(C)c3nc21`, the IC50 was 5.82 µM. For the compound `CCC(=O)Nc1cccc(NC(=S)NC(=O)c2cccs2)c1`, the IC50 is > 50 µM (inactive). In the case of `Cc1ccc(S(=O)(=O)NCCc2cn3nc(C)c(C)nc3n2)cc1C`, the half-inhibitory concentration (IC50) was 33.3 µM.

For the compound `CCC(c1nnnn1C1CCCC1)N1CCC(C(N)=O)CC1` (configuration not stated), the IC50 was > 50 µM (inactive).

As to `CC(CC(F)(F)F)N1CCC(n2nccc2NC(=O)CCOc2ccccc2)CC1` (configuration not stated), the IC50 is > 50 µM (inactive).

Take `Cc1nc2nc(CCNS(=O)(=O)c3ccc(Cl)cc3)cn2nc1C`: the half-inhibitory concentration (IC50) was 41.2 µM. To `CC(C)(C)CN1CCC(n2nccc2NC(=O)c2ccccc2Cl)CC1` belongs > 50 µM (inactive); to `CCN(CC)S(=O)(=O)c1ccc(OC)c(NC(=O)C2CC(=O)N(c3ccc(C)cc3)C2)c1` (configuration not stated), > 50 µM (inactive). Regarding `CCOC(=O)c1c(N)n(CCN2CCCCC2)c2nc3ccccc3nc12`, the IC50 is 32.3 µM. To `COc1ccc(Cl)cc1S(=O)(=O)Nc1noc2ccccc12` belongs > 50 µM (inactive); to `CC(=O)N1CCc2c(sc(NC(=O)CS(=O)(=O)c3ccc(F)cc3)c2C(N)=O)C1`, > 50 µM (inactive); to `CCCOC(=O)CSC1=C(C#N)C(c2ccccc2OCC)C(C#N)C(=O)N1` (configuration not stated), > 50 µM (inactive).

Regarding `COc1ccc(-c2nc(/C=C3\C(C)=Nc4ccccc43)c(O)o2)cc1`, the IC50 is > 50 µM (inactive). For `Cc1ccc(/C=C2/C(=O)c3ccc(C(=O)O)cc3C2=O)o1`, the IC50 is > 50 µM (inactive). With `OCCNc1c2ccccc2nc2c(F)c(F)c(F)c(F)c12`, the IC50 was 20.9 µM. Turning to `Cc1cccc2cc(C#N)c(NCCNC(=O)COc3ccccc3)nc12`, the IC50 is > 50 µM (inactive). In the case of `COC(=O)C1=CN(Cc2cccs2)C=C(C(=O)OC)C1c1ccc(OC)cc1OC`, the IC50 was 6.08 µM. On to `O=C(CCN1C(=O)COc2ccccc21)N1CCCCC1`, for which the IC50 was > 50 µM (inactive). Consider `CCCCNC(=O)c1c(N)n(Cc2ccc3c(c2)OCO3)c2nc3ccccc3nc12`, for which the concentration for half-maximal inhibition (IC50) was 4.95 µM. In the case of `Cc1c(O)ccc2c3c(c(=O)oc12)CCC(C)C3` (configuration not stated), the IC50 was 11.9 µM. For the compound `COc1cc2cc(C(N)=O)c(N)nc2cc1OC`, the IC50 is 10.3 µM. As for `CN(Cc1cnc2nc(N)nc(N)c2n1)c1ccc(C(=O)N[C@@H](CCC(=O)O)C(=O)O)cc1`, the IC50 was > 50 µM (inactive). To `CCOC(=O)c1sc(N/N=C/c2cc(Br)c(O)c(OC)c2)nc1C` belongs > 50 µM (inactive).
